Data from patent US20060097218A1, “Etchants containing filterable surfactant” (General Chemical Performance Products LLC, priority 2004, published 2006).

What was measured:
Format in all cases: physicochemical
[1] = Preliminary testing of potential surfactants: comments and overall assessment; details: BOE 7-1; prior to filtration
Protocol: (§1) A preliminary testing was conducted prior to filtration to evaluate whether individual components of the claimed surfactant(s), would work individually, need modification, or require combining to give a basic understanding which would lead to synthesis of the surfactant(s) of the invention. Potential surfactant candidates were prepared and evaluated in an aqueous mixture comprised of about 35% by weight of ammonium fluoride, NH4F, and about 6.3% by weight of hydrofluoric acid, HF, (defined as BOE 7-1).

[2] = Surface tension measurement of surfactant-containing etchant; details: BOE 7-1 (about 35% NH4F, about 6.3% HF); 25° C.; prior to filtration; incremental additions until ST stabilized or saturation
Protocol: In the examples, a surfactant was added to a mixture of predetermined amounts of hydrofluoric acid, ammonium fluoride and deionized water to prepare an etchant composition. The prepared composition was kept standing at room temperature and test samples were periodically withdrawn to measure the change of surface tension of the composition.
as §1
In this run, surfactant “H” was tested with an aqueous solution of mixed etchants consisting of about 85% by weight of sulfuric acid, about 5% by weight of nitric acid, and about 1.5% by weight hydrofluoric acid. 100 ppm (Sample 1) and 200 ppm (Sample 2) by weight of surfactant “H” were mixed into two separate samples of FS Etch. The surface tension of both unfiltered samples was measured 1 hour upon batch completion and after 15 days of storage.
Additional measurements of surface tension at 25° C. were carried out on unfiltered aqueous etchants of (1) 40% by weight ammonium fluoride, and (2) 9.2% by weight of hydrofluoric acid containing 100 ppm by weight of surfactant “H” (Table I).

[3] = Solubility of surfactant in BOE (saturation point); details: BOE 7-1; prior to filtration
Protocol: Potential surfactant candidates were prepared and evaluated in an aqueous mixture comprised of about 35% by weight of ammonium fluoride, NH4F, and about 6.3% by weight of hydrofluoric acid, HF, (defined as BOE 7-1).

Compound	Comments [1]	Promising (Yes/No) [1]	Surface Tension [2] [dynes/cm]	Solubility In BOE [3]
NC1CCCCCC1 [Surfactant A, Cycloheptylamine]	ST too high	No	72	≦400 ppm
NC1CCCCCCC1 [Surfactant B, Cyclooctylamine]	ST too high	No	65	≦600 ppm
NC1CCCC1 [Surfactant C, Cyclopentylamine]	ST too high	No	65	≦400 ppm
O=C(O)C(F)(F)C(F)(F)C(F)(F)C(F)(F)C(F)(F)C(F)(F)C(F)(F)F [Surfactant D, Perfluorooctanoic Acid]	Precipitated	No	20	≦100 ppm
O=C(O)C(F)(F)C(F)(F)C(F)(F)C(F)(F)C(F)(F)C(F)(F)F [Surfactant E, Perfluoroheptanoic Acid]	Precipitated	No	20	≦100 ppm
O=C(O)C(F)(F)C(F)(F)C(F)(F)C(F)(F)C(F)(F)C(F)(F)C(F)(F)C(F)(F)F [Surfactant F, Perfluorononanoic Acid]	Precipitated	No	25	≦100 ppm
O=C(O)C(F)(F)C(F)(F)C(F)(F)C(F)(F)F [Surfactant G, Perfluoropentanoic Acid]	Precipitated	No	24	≦100 ppm
